Assay results published in US20050191668A1, “Methods of using peroxisome proliferator-activated receptor alpha target genes” (priority 2004, published 2005).

What was measured:
Pa13 gene [1] = assay: Pa13 gene expression by real-time RT-PCR in primary adipocytes; assay type: cell-based, human; details: about 18-20 hours, vehicle control = 100
Text: (§1) Human hepatocyte HuH7 cells, which are epithelial cells of liver, were obtained from Japan Health Science Research Resources Bank (Osaka, Japan). Human primary adipocytes, which are connective tissue cells specialized for the synthesis and storage of fat, were obtained from Zen-Bio, Inc (Research Triangle Park, NC). Human primary skeletal muscle cells (SKMC) were obtained from Cambrex Bio Science (Walkersville, Md.). PPARα agonists, Wy14643 (Agatha, et al, 2000, Archives of Biochemistry and Biophysics 380:353-359) and fenofibrates were obtained from Cayman Chemical (Ann Arbor, Mich.) and Sigma (St Louis, Mo.), respectively.
(§2) Human HuH7 cells were cultured in Dulbecco's Modified Eagle Medium with 10% Fetal Bovine Serum (Gibco, N.Y.). Cells were treated with charcoal-stripped, delipidated calf serum (5%) (Sigma, St Louis, Mo.) for about 4-18 hours. Then, cells were treated with different concentrations of PPARα agonist (Wy14643 or fenofibrates) for about 20-24 h. Human SKM cells were cultured in Skeletal Muscle Growth Medium (Cambrex Bio Science, Walkersville, Md.), and were treated with different concentrations of PPARα agonist (Wy14643 or fenofibrates) for about 18-20 hours. Human primary adipocytes were cultured in Preadipocyte Medium, (Cat #PM—1, Zen-Bio, Inc., Research Triangle Park, NC), and were treated with different concentrations of PPARα agonist (Wy14643 or fenofibrates) for about 18-20 hours.
Total RNA was purified from cultured cells following the protocol provided by the manufacturer (Trizon method, Invitrogen Inc. Ca). The polymerase chain reaction (PCR) primers and fluorescent probes (TagMan probes) for Pa9, Pa13, and Pa21 were designed from GenBank sequences of accession numbers W30988, AB000584, and NM_080725, respectively. The primers and probes were designed using the software PrimerDesign (Applied Biosystems, Foster City, Calif.). The PCR primers for Pa9 were SEQ ID NO: 7, (5-[…]) and SEQ ID NO: 8 (5-[…]). […] The PCR primers for Pa13 were SEQ ID NO: 10 (5-[…], T) and SEQ ID NO: 11 (5-[…] T). […] The PCR primers for Pa21 were SEQ ID NO: 13 (5-[…] C) and SEQ ID NO: 14 (5-[…]). […] All primers and probes were synthesized by Keystone Labs (Camarillo, Calif.).
(§3) Reverse transcription (RT) and PCR were conducted in one step using “One-Step RT-PCR Master Mix Reagent” kit (Applied Biosystems, Foster City, Calif.) in ABI PRISM 7700 Sequence Detection System (Applied Biosystems). Each reaction was performed in a total volume of 25 μl containing 40 ng of total RNA. The reaction condition was: 48° C. for 30 minutes, 60° C. for 30 minutes, 94° C. for 5 minutes, followed by 40 cycles of 94° C. for 20 seconds and 60° C. for 1 minute. The primers for 18S ribosomal RNA were developed and provided by Applied Biosystems. The measurement of human 18S ribosomal RNA was used as an internal control for normalization of measuring and loading errors. PCR data were collected by Ct value (the cycle number at which logarithmic PCR plots cross a calculated threshold line) according to the manufacturer's guidelines and the value was used to determine the Δ^Ct (Ct of the target gene minus the Ct of 18S ribosomal RNA controls). Relative mRNA level was calculated using the equation 2^−ΔΔCt as described previously (Heid et al., 1996, Genome Res. 6:986-994).

human FDRG gene = assay: FDRG gene expression by real-time RT-PCR in primary skeletal muscle cells; assay type: cell-based; details: Veh = 1.00, same RNA sample
Description: as §3
The nucleotide sequence of the human FDRG gene (AX278133) is provided in SEQ ID NO: 1 and the sequence alignment between W30988 and FDRG gene is shown in FIG. 1. […] Quantitative real-time RT-PCR was performed to test whether gene expression of the human FDRG gene is regulated by PPARα. […]

Pa9 gene [2] = assay: Pa9 gene expression by real-time RT-PCR in primary adipocytes; assay type: cell-based, human; details: about 18-20 hours, vehicle control = 100
Text: as §1, §2
Total RNA was purified from cultured cells following the protocol provided by the manufacturer (Trizon method, Invitrogen Inc. Ca). The polymerase chain reaction (PCR) primers and fluorescent probes (TagMan probes) for Pa9, Pa13, and Pa21 were designed from GenBank sequences of accession numbers W30988, AB000584, and NM_080725, respectively. The primers and probes were designed using the software PrimerDesign (Applied Biosystems, Foster City, Calif.). The PCR primers for Pa9 were SEQ ID NO: 7, (5-[…]) and SEQ ID NO: 8 (5-[…]). […] The PCR primers for Pa13 were SEQ ID NO: 10 (5-[…], T) and SEQ ID NO: 11 (5-[…] T). […] The PCR primers for Pa21 were SEQ ID NO: 13 (5-[…] C) and SEQ ID NO: 14 (5-[…]). […]
Reverse transcription (RT) and PCR were conducted in one step using “One-Step RT-PCR Master Mix Reagent” kit (Applied Biosystems, Foster City, Calif.) in ABI PRISM 7700 Sequence Detection System (Applied Biosystems). […] PCR data were collected by Ct value (the cycle number at which logarithmic PCR plots cross a calculated threshold line) according to the manufacturer's guidelines and the value was used to determine the Δ^Ct (Ct of the target gene minus the Ct of 18S ribosomal RNA controls). Relative mRNA level was calculated using the equation 2^−ΔΔCt as described previously (Heid et al., 1996, Genome Res. 6:986-994).

Pa21 gene = Pa21 gene expression in SKM cells with siRNA-reduced PPARα expression; assay type: cell-based, human; details: SKMU cells with reduced PPARα expression
Text: (§4) SiRNA oligos specific to PPARα were designed and used to knock-down or reduce the expression level of PPARα in human SKMU cells following procedures known to those skilled in the art (Brummelkamp et al., 2002, Science, 296: 550-553). Four sets of siRNA oligo were originally designed using GenBank accession number S74349 (human peroxisome proliferator activated receptor alpha, cDNA; PPARα) as the template, and the software, Target Finder (Ambion, Austin, Tex.). […] The sequences for the two sets of siRNA correspond to 907 bp to 927 bp (SEQ ID NO: 21, 5′-[…] A) and 1106 bp to 1126 bp of the cDNA (SEQ ID NO: 22, 5′-[…] T) relative to the first nucleotide of the start codon. The oligos were chemically synthesized by Ambion Inc. (Austin, Tex.). The universal negative control siRNA oligo was purchased from Ambion.
(§5) Human primary skeletal muscle cells (hSKM, provided by Cambrex, Md.) were prepared the day before transfection at the density of 4.67×10^4 cells/per 60 mm dish (about 20% confluence). The cells were cultured at 37° C., 5% CO2 for 24 hrs with antibiotics-free SKGM medium (Cambrex, Md.). […]
(§6) Again, total RNA was isolated from the cells and real-time PCR was performed and the expression levels of target genes of interest, such as Pa9, 13 and 21, were quantitatively measured using the RT-PCR technique described in Example 1.

Pa13 gene [3] = assay: Pa13 gene expression in SKM cells with siRNA-reduced PPARα expression; assay type: cell-based, human; details: SKMU cells with reduced PPARα expression
Text: as §4, §5, §6

Pa9 gene [4] = assay: Pa9 gene expression in SKM cells with or without siRNA-reduced PPARα expression; assay type: cell-based, human
Text: as §4
Human primary skeletal muscle cells (hSKM, provided by Cambrex, Md.) were prepared the day before transfection at the density of 4.67×10^4 cells/per 60 mm dish (about 20% confluence). The cells were cultured at 37° C., 5% CO2 for 24 hrs with antibiotics-free SKGM medium (Cambrex, Md.).
Transfection of siRNAs into the cultured cells was carried out following the manufacturer's instruction. Briefly, before the transfection, siPORT Amine (Ambion, Tex.) was first diluted with SKGM medium free of antibiotics and serum (10 μl siPORT/ml), followed by adding siRNA (50 nM) into the mixture. SKM cells (prepared in advance in multiple dishes) were transfected with 2 ml of the mixture for 4 hrs. Additional 8 ml of fresh SKGM medium (without antibiotics) were added into each dish to maximize cell growth and reduce potential cytotoxicity caused by the transfection reagent. As controls, the cells were also transfected with siPORT Amine alone or siPORT Amine plus universal negative control siRNA.
as §6

## Cc1cccc(Nc2cc(Cl)nc(SCC(=O)O)n2)c1C [Wy14643]
Pa13 gene [1]; 10 uM
  Pa13 (N26311) gene expression, Percentage ± SE (%): 56 ± 10%
Pa13 gene [1]; 50 uM
  Pa13 (N26311) gene expression, Percentage ± SE (%): 55 ± 2%
Pa13 gene [1]; 250 uM
  Pa13 (N26311) gene expression, Percentage ± SE (%): 214 ± 7.9%
Human FDRG gene; 30 uM
  FDRG gene expression, Fold of Induction: 4.37 fold
Human FDRG gene; 100 uM
  FDRG gene expression, Fold of Induction: 7.8 fold
Human FDRG gene; 100 uM, listed as WY14643
  FDRG gene expression, Fold of Induction: 7.80 fold
Pa9 gene [2]; 10 uM
  Pa9 (W38098) gene expression, Percentage ± SE (%): 124 ± 7.2%
Pa9 gene [2]; 50 uM
  Pa9 (W38098) gene expression, Percentage ± SE (%): 358 ± 6.9%
Pa9 gene [2]; 250 uM
  Pa9 (W38098) gene expression, Percentage ± SE (%): 437 ± 17.3%
Pa21 gene
  induction of Pa21 gene expression (FIG. 7): no detectable induction
Pa13 gene [3]
  induction of Pa13 gene expression (FIG. 6): no detectable induction
Pa9 gene [4]; SKM cells with reduced gene expression of PPARα (siRNA), 16 hrs treatment
  increase of Pa9 gene expression: 2.35 fold
Pa9 gene [4]; SKM cells without reduced expression level of PPARα, 16 hrs treatment
  induction of Pa9 gene expression: 33.48 fold
Pa9 gene [4]; SKMU cells with reduced PPARα expression
  induction of Pa9 gene expression (FIG. 5): decreased induction
